68 compounds from BindingDB's records for aid1799744 (Csar, 2012) can be followed below.

The target in the test is Mitogen-activated protein kinase 1 (Homo sapiens, UniProt P28482). In words: Assay 1.
Chain of Mitogen-activated protein kinase 1 (P28482 whole entry): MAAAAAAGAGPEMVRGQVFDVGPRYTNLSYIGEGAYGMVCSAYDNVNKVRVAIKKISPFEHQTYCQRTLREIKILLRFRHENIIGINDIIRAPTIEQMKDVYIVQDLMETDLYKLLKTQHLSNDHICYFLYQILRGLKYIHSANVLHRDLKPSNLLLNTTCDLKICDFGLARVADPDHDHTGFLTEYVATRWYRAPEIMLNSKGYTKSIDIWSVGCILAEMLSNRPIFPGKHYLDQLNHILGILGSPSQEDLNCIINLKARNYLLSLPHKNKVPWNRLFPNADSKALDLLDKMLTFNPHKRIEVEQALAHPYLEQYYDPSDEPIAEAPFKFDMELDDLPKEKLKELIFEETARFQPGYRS

Regarding `CC[C@@H](COC(C)=O)Nc1ncc(C)c(-c2c[nH]c(C(=O)N[C@H](COC(C)=O)c3cccc(Cl)c3)c2)n1` [erk000620], the Ki stood at 0.229 µM. For `Cc1cnc(NN2CCCCC2)nc1-c1c[nH]c(C(=O)N[C@H](CO)c2cccc(Cl)c2)c1` [erk000621] the value was 0.005 µM; for `COC[C@@H]1CCCN1Nc1ncc(C)c(-c2c[nH]c(C(=O)N[C@H](CO)c3cccc(Cl)c3)c2)n1` [erk000622], 0.009 µM; for `Cc1cnc(NC2CCNCC2)nc1-c1c[nH]c(C(=O)N[C@H](CO)c2cccc(Cl)c2)c1` [erk000623], 0.015 µM. `Cc1cnc(NN2CCCC2)nc1-c1c[nH]c(C(=O)N[C@H](CO)c2cccc(Cl)c2)c1` [erk000624]: the affinity, expressed as Ki, was 0.007 µM.

Turning to `Cc1cccc([C@@H](CO)NC(=O)c2cc(-c3nc(NOCC(F)(F)F)ncc3C)c[nH]2)c1` [erk000625], the affinity corresponds to a Ki of 0.004 µM. The value for `Cc1cnc(N)nc1-c1c[nH]c(C(=O)NCc2cccc(F)c2)c1` [erk000626] was 1.26 µM; that for `Cc1cnc(N)nc1-c1c[nH]c(C(=O)NCc2c(Cl)cccc2Cl)c1` [erk000627] was 0.324 µM. The value for `Cc1cnc(N)nc1-c1c[nH]c(C(=O)NCc2cc(F)cc(F)c2)c1` [erk000629] was 0.977 µM. For `COc1cccc(CNC(=O)c2cc(-c3nc(N)ncc3C)c[nH]2)c1` [erk000630] the value was 0.813 µM; for `Cc1cnc(N[C@H]2CCOC2)nc1-c1c[nH]c(C(=O)N[C@H](CO)c2cccc(Cl)c2)c1` [erk000631], 0.209 µM; for `O=c1[nH][nH]c2cc(Nc3ncc(Nc4ccccc4)c(Nc4cc(C5CC5)[nH]n4)n3)ccc12` [erk000633], 0.015 µM. As to `CCNc1ncc(C)c(-c2c[nH]c(C(=O)N[C@H](CO)c3cccc(C)c3)c2)n1` [erk000634], the affinity corresponds to a Ki of 0.004 µM. The value for `CCNc1ncc(C)c(-c2c[nH]c(C(=O)N[C@H](CO)c3cccc(Cl)c3)c2)n1` [erk000635] was 0.004 µM; that for `Cc1cnc(Nc2ccccc2)nc1-c1c[nH]c(C(=O)N[C@H](COC(=O)[C@@H](N)C(C)C)c2ccccc2)c1` [erk000637] was 0.38 µM; that for `Cc1cnc(NCC2CCOCC2)nc1-c1c[nH]c(C(=O)N[C@H](CO)c2ccccc2)c1` [erk000638] was 0.017 µM. For `Cc1cnc(NCC2CCOCC2)nc1-c1c[nH]c(C(=O)N[C@H](CO)c2cccc(Cl)c2)c1` [erk000639] the value was 0.017 µM. `Cc1cnc(N[C@H]2CCCOC2)nc1-c1c[nH]c(C(=O)N[C@H](CO)c2cccc(Cl)c2)c1` [erk000640] registered a Ki of 0.028 µM. The value for `Cc1cnc(NN2CCN(C)CC2)nc1-c1c[nH]c(C(=O)N[C@H](CO)c2cccc(Cl)c2)c1` [erk000641] was 0.02 µM; that for `Cc1cccc([C@@H](CO)NC(=O)c2cc(-c3nc(NC4CCCCC4)ncc3C)c[nH]2)c1` [erk000642] was 0.012 µM; that for `Cc1cnc(NC2CCCCC2)nc1-c1c[nH]c(C(=O)N[C@H](CO)c2cccc(Cl)c2)c1` [erk000643] was 0.004 µM. The compound `Cc1cnc(NC2CCCC2)nc1-c1c[nH]c(C(=O)N[C@H](CO)c2cccc(Cl)c2)c1` [erk000644] displayed a Ki of 0.002 µM. `Cc1cnc(Nc2ccccc2)nc1-c1c[nH]c(C(=O)N[C@H](COC(=O)CN)c2ccccc2)c1` [erk000645] yielded a Ki of 0.055 µM. The value for `CC(=O)OC[C@@H](NC(=O)c1cc(-c2nc(Nc3ccccc3)ncc2C)c[nH]1)c1ccccc1` [erk000646] was 0.038 µM; that for `Cc1cccc([C@@H](CO)NC(=O)c2cc(-c3nc(NCC(F)(F)F)ncc3C)c[nH]2)c1` [erk000647] was 0.004 µM. For `Cc1cnc(NN(C)C)nc1-c1c[nH]c(C(=O)N[C@H](CO)c2cccc(Cl)c2)c1` [erk000648] the value was 0.026 µM; for `Cc1cnc(NOCc2ccccc2)nc1-c1c[nH]c(C(=O)N[C@H](CO)c2ccccc2)c1` [erk000649], 0.191 µM; for `Cc1csc(Nc2ncc(C)c(-c3c[nH]c(C(=O)N[C@H](CO)c4cccc(Cl)c4)c3)n2)n1` [erk000652], 0.004 µM.

With `Cc1ccc(Nc2ncc(C)c(-c3c[nH]c(C(=O)N[C@H](CO)c4ccccc4)c3)n2)c(C)c1` [erk000653], affinity was put at a Ki of 0.003 µM. For `CCN(CC)c1ccc(Nc2ncc(C)c(-c3c[nH]c(C(=O)N[C@H](CO)c4ccccc4)c3)n2)c(C)c1` [erk000654], affinity was put at a Ki of 0.052 µM. For `Cc1cnc(NO)nc1-c1c[nH]c(C(=O)N[C@H](CO)c2ccccc2)c1` [erk000656] the value was 2.34 µM. For `Cc1cnc(Nc2ccc(Cl)cc2Cl)nc1-c1c[nH]c(C(=O)N[C@H](CO)c2ccccc2)c1` [erk000657] the value was 0.008 µM. `Cc1cnc(Nc2ccc(F)cc2F)nc1-c1c[nH]c(C(=O)N[C@H](CO)c2ccccc2)c1` [erk000658] registered a Ki of 0.002 µM. For the compound `NS(=O)(=O)c1cccc(Nc2nccc(-c3ccc(O)c(C(=O)O)c3)n2)c1` [erk000659], the Ki was 0.229 µM.

In turn, `Cc1cccc([C@@H](CO)NC(=O)c2cc(-c3nc(N[C@H]4CCOC4)ncc3C)c[nH]2)c1` [erk000660] returned a Ki of 0.004 µM. Compound `Cc1cnc(NNS(C)(=O)=O)nc1-c1c[nH]c(C(=O)N[C@H](CO)c2cccc(Cl)c2)c1` [erk000661] came in with a Ki of 0.003 µM. Consider `O=c1[nH][nH]c2cc(Nc3ccc([N+](=O)[O-])c(Nc4cc(C5CC5)[nH]n4)n3)ccc12` [erk000662], for which the affinity, expressed as Ki, was 0.01 µM. For `Cc1ccccc1CNC(=O)c1cc(-c2ccnc(N)n2)c[nH]1` [erk000663] the value was 1.29 µM; for `Nc1nccc(-c2c[nH]c(C(=O)NCc3cccc(Cl)c3)c2)n1` [erk000664], 0.525 µM. In the case of `Cc1cnc(Nc2ccc3ncsc3c2)nc1-c1c[nH]c(C(=O)N[C@H](CO)c2cccc(Cl)c2)c1` [erk000665], affinity was put at a Ki of 0.071 µM. The value for `CC[C@@H](COC(C)=O)Nc1ncc(C)c(-c2c[nH]c(C(=O)N[C@H](CO)c3cccc(Cl)c3)c2)n1` [erk000666] was 0.006 µM; that for `Cc1cc(N)ccc1Nc1ncc(C)c(-c2c[nH]c(C(=O)N[C@H](CO)c3cccc(Cl)c3)c2)n1` [erk000668] was 0.003 µM; that for `CCOC(=O)OC[C@H](CC)Nc1ncc(C)c(-c2c[nH]c(C(=O)N[C@H](CO)c3cccc(Cl)c3)c2)n1` [erk000669] was 0.027 µM. `O=C(N[C@H](CO)c1cccc(Cl)c1)c1cc(-c2ncnc(Nc3ccccc3)n2)c[nH]1` [erk000671] had a Ki of 0.002 µM. For `CC(C)Nc1cc(-c2c[nH]c(C(=O)N[C@H](CO)c3cccc(Cl)c3)c2)ncn1` [erk000672] the value was 0.03 µM; for `CC[C@@H](CO)Nc1cc(-c2c[nH]c(C(=O)N[C@H](CO)c3cccc(Cl)c3)c2)ncn1` [erk000673], 0.018 µM. The value for `Cc1cnc(N[C@@H](CO)CC(F)(F)F)nc1-c1c[nH]c(C(=O)N[C@H](CO)c2cccc(Cl)c2)c1` [erk000675] was 0.008 µM. As to `CCOP(=O)(OCC)OC[C@H](CC)Nc1ncc(C)c(-c2c[nH]c(C(=O)N[C@H](COP(=O)(OCC)OCC)c3cccc(Cl)c3)c2)n1` [erk000676], the Ki was found to be 1.07 µM. For the compound `Cc1cnc(N[C@@H](C)COC(=O)C(C)C)nc1-c1c[nH]c(C(=O)N[C@H](COC(=O)C(C)C)c2cccc(Cl)c2)c1` [erk000677], the Ki came to 1.32 µM.

`CC[C@@H](CO)Nc1ncc(C)c(-c2cc(C(=O)N[C@H](CO)c3cccc(Cl)c3)n(CC)c2)n1` [erk000678] came in with a Ki of 0.004 µM. For `CCn1cc(-c2nc(N[C@@H](C)CO)ncc2C)cc1C(=O)N[C@H](CO)c1cccc(Cl)c1` [erk000679] the value was 0.005 µM. For `CCn1cc(-c2nc(NCC(F)(F)F)ncc2C)cc1C(=O)N[C@H](CO)c1cccc(Cl)c1` [erk000680] the value was 0.034 µM; for `CC(=O)OC[C@H](C)Nc1ncc(C)c(-c2c[nH]c(C(=O)N[C@H](COC(C)=O)c3cccc(Cl)c3)c2)n1` [erk000682], 0.331 µM. As to `CC[C@@H](COC(=O)OC(C)C)Nc1ncc(C)c(-c2c[nH]c(C(=O)N[C@H](CO)c3cccc(Cl)c3)c2)n1` [erk000684], the Ki amounted to 0.158 µM. The value for `CC[C@@H](COC(=O)[C@@H](N)C(C)C)Nc1ncc(C)c(-c2c[nH]c(C(=O)N[C@H](COC(=O)[C@@H](N)C(C)C)c3cccc(Cl)c3)c2)n1` [erk000685] was 0.759 µM.

Turning to `CC[C@@H](COC(=O)C(C)C)Nc1ncc(C)c(-c2c[nH]c(C(=O)N[C@H](CO)c3cccc(Cl)c3)c2)n1` [erk000689], the Ki is 0.015 µM. The value for `CCOP(=O)(OCC)OC[C@H](CC)Nc1ncc(C)c(-c2c[nH]c(C(=O)N[C@H](CO)c3cccc(Cl)c3)c2)n1` [erk000690] was 1.1 µM; that for `Cc1cnc(N)nc1-c1c[nH]c(C(=O)N[C@H](CO)c2cccc(Cl)c2)c1` [erk000691] was 0.015 µM; that for `Cc1cnc(NCC(F)(F)F)nc1-c1cc(C(=O)N[C@H](CO)c2cccc(Cl)c2)n(C)c1` [erk000692] was 0.006 µM. As for `CC[C@@H](CO)Nc1ncc(C)c(-c2c[nH]c(C(=O)N[C@H](COC(=O)OC(C)C)c3cccc(Cl)c3)c2)n1` [erk000693], the Ki is 0.037 µM. For `CC[C@@H](CO)Nc1ncc(C)c(-c2cc(C(=O)N[C@H](CO)c3cccc(Cl)c3)n(COC)c2)n1` [erk000694] the value was 0.005 µM; for `CC[C@@H](COC(=O)C(C)C)Nc1ncc(Cl)c(-c2c[nH]c(C(=O)N[C@H](COC(=O)C(C)C)c3ccccc3)c2)n1` [erk000696], 0.151 µM. `CC[C@@H](CO)Nc1ncc(F)c(-c2c[nH]c(C(=O)N[C@H](CO)c3cccc(Cl)c3)c2)n1` [erk000697]: the affinity corresponds to a Ki of 0.003 µM. For `CC[C@@H](COC(=O)COCCOC)Nc1ncc(C)c(-c2c[nH]c(C(=O)N[C@H](CO)c3cccc(Cl)c3)c2)n1` [erk000698] the value was 0.017 µM.

Regarding `CC[C@@H](COC(=O)COCCOCCOC)Nc1ncc(C)c(-c2c[nH]c(C(=O)N[C@H](CO)c3cccc(Cl)c3)c2)n1` [erk000699], the affinity, expressed as Ki, was 0.013 µM. The compound `Cc1[nH]c(C(=O)N[C@H](CO)c2cccc(Cl)c2)c(C)c1-c1ccnc(Nc2ccc(F)cc2Cl)n1` [erk000700] yielded a Ki of 0.009 µM. `CCONc1ncc(C)c(-c2cc(C(=O)N[C@H](CO)c3cccc(Cl)c3)n(C)c2)n1` [erk000701] showed a Ki of 0.013 µM.

`CC[C@@H](COC(=O)C(C)(C)C)Nc1ncc(C)c(-c2c[nH]c(C(=O)N[C@H](CO)c3cccc(Cl)c3)c2)n1` [erk000702] yielded a Ki of 0.055 µM.

By Ki is commonly meant a dissociation constant, usually derived from enzyme kinetics or from competition with a known ligand. Low readings indicate a stronger hold on the target, high ones a looser hold on the target.
